Measurements published in patent US20100093613A1, “METHODS FOR IDENTIFYING AGENTS AND THEIR USE FOR THE PREVENTION OR STABILIZATION OF FIBROSIS” (priority 2007, published 2010).

What was measured:
Fibroblasts [1] = test: BioMAP HDF3CT system (IL-1β + TNF-α + IFN-γ + TGF-β), scoring of readout parameters; format: cell-based, human
From the text: (§1) Each screened compound is scored according to its modulation of the selected readout parameters. Compounds receive a positive score (score of 1) or negative score (score of 0) for each readout parameter set forth in Table 2 that is modulated in the desired direction. […] Parameters may be penalized by making the positive score a −1 for parameters where regulation is opposite to the desired direction.
(§2) Cell culture. Human umbilical vein endothelial cells (HUVEC) were pooled from multiple donors, cultured according to standard methods, and plated into microtiter plates at passage 4. Cell culture medium for all systems containing HUVEC included hydrocortisone. Coronary artery smooth muscle cells (CASM3C) and umbilical artery smooth muscle cells (HSM3C) were cultured according to standard procedures. Peripheral blood mononuclear cells (PBMC) were prepared from buffy coats from normal human donors according to standard methods. Monocyte-derived macrophages were differentiated in the presence of M-CSF for 7 d according to standard procedures. Human dermal fibroblasts were pooled from 3 donors, cultured according to standard methods, and plated confluent 24 h before stimulation. Cell culture medium for all systems containing fibroblasts and keratinocytes contained low hydrocortisone. Epidermal keratinocytes and bronchial epithelial cells from 3 donors were cultured according to standard procedures and pooled when plated into microtiter plates. For keratinocyte-fibroblast co-cultures, cells were plated simultaneously 24 h before stimulation. For bronchial epithelial cell-fibroblast co-cultures, fibroblasts were plated and cultured 48 before addition of epithelial cells, then cultured another 24 hr before stimulation. Concentrations/amounts of agents added to confluent microtiter plates to build each system: cytokines (IL-1β, 1 ng/ml; TNF-α, 5 ng/ml; IFN-γ, 20 ng/ml; IL-4, 5 ng/ml), activators (SAg, 20 ng/ml; histamine, 10 μM; zymosan, 10 μg/ml; or LPS, 2 ng/ml), growth factors (TGF-β, 5 ng/ml; EGF, bFGF, and PDGF-BB, 10 ng/ml), and PBMC (7.5×10^4 cells/well) or macrophages (3.5×10^4 cells/well).
(§3) Compounds. Compounds were prepared in the solvent directed, added 1 hr before stimulation of the cells, and were present during the 24 hr stimulation period for the measurement of parameters listed in Table 2. For proliferation, compounds added 1 hr before stimulation of the cells with cytokines, and were present during the 48 to 72 hr assay. If prepared in DMSO, the final concentration of solvent was 0.1% or less.
(§4) Readout Parameter Measurements. The levels of readout parameters were measured by ELISA. Briefly, microtiter plates are treated, blocked, and then incubated with primary antibodies or isotype control antibodies (0.01-0.5 microg/ml) for 1 hr. After washing, plates were incubated with a peroxidase-conjugated anti-mouse IgG secondary antibody or a biotin-conjugated anti-mouse IgG antibody for 1 hr followed by streptavidin-HRP for 30 min. Plates were washed and developed with TMB substrate and the absorbance (OD) was read at 450 nm (subtracting the background absorbance at 650 nm). Quantitation of TNF-alpha or PGE2 in the LPS system was done using a commercially available kit according to the manufacturer's directions. Proliferation of endothelial cells (HUVEC and CAEC), smooth muscle cells (SMC and CASMC), and PBMC (T cells) was quantitated by Alamar Blue reduction or SRB.
(§5) Data analysis. Mean OD values for each parameter were calculated for compounds run in duplicate. The mean value (or single well OD value) for each parameter in a treated sample was then divided by the mean value from an appropriate control to generate a ratio. All ratios were then log10 transformed. 95% significance prediction envelopes (grey shading in Figures) were calculated for historical controls.

[2] = test system: Umbilical Vein Endothelial Cells; test: BioMAP 3C system (IL-1β + TNF-α + IFN-γ), scoring of readout parameters; format: cell-based, human; conditions: for HLA-DR score: desired change decrease; for uPAR score: desired change increase
From the text: as §1, §2, §3, §4, §5

human primary cells = test: Total score for desired parameter modulation over the BioMAP systems of Table 1; format: cell-based; conditions: penalties not applied
From the text: as §1
The relative importance of each parameter may be weighted by the screener to select those parameters of greatest interest for a particular application.
(§6) Compounds were first selected to inhibit PAI-1 in the HDFT as an indication of TBF-b signaling inhibition without being cytotoxic. […] Blank spots in Table 3 were where parameter was not assayed. Penalties were not applied for this scoring.
BioMAP Systems are designed to model complex human disease biology in a practical in vitro format. This is achieved by stimulating human primary cells (single cell type or defined mixtures of cell types) such that multiple disease-relevant signaling pathways are simultaneously active. The choice of cell types and stimulations is guided by the knowledge of disease biology and mechanisms. Incorporating appropriate cell types and stimulating signaling pathways relevant to disease states allows association of biological activities detected in BioMAP Systems with disease processes. Drug effects are then recorded by measuring biologically meaningful protein readouts that provide coverage of biological space of interest (e.g., inflammation, tissue remodeling) and allow discrimination between different drug classes tested.
as §2, §3
Readout Parameter Measurements. The levels of readout parameters were measured by ELISA.

[3] = test system: Bronchial epithelial cells; test: BioMAP BE3C system (IL-1β + TNF-α + IFN-γ), scoring of readout parameters; format: cell-based, human; conditions: for PAI-1 score: desired change decrease
From the text: as §1, §2, §3, §4, §5

[4] = test system: Peripheral Blood Mononuclear Cells + Umbilical Vein Endothelial Cells; test: BioMAP LPS system (TLR4), scoring of readout parameters; format: cell-based, human; conditions: LPS (by position); desired change decrease
From the text: as §1, §2, §3, §4, §5

Fibroblasts [5] = test: BioMAP HDFT system (TGF-β), scoring of readout parameters; format: cell-based, human; parameters: key to PAI-1 score: 1 = modulated in desired direction, 0 = not (no penalties applied); conditions: HDFT; desired change decrease
From the text: as §1, §6, §2, §3, §4
Data analysis. Mean OD values for each parameter were calculated for compounds run in duplicate. The mean value (or single well OD value) for each parameter in a treated sample was then divided by the mean value from an appropriate control to generate a ratio.

[6] = test system: Bronchial epithelial cells; test: BioMAP BE4T system (IL-4 + TNF-a), scoring of readout parameters; format: cell-based, human; parameters: key: 1 = modulated in desired direction, 0 = not (−1 = opposite); conditions: for PAI-1 score: desired change decrease; for EGFR score: desired no change or increase
Description: In the “BE4T” system, bronchial epithelial cells, usually primary human bronchial epithelial cells, are cultured in the presence of TNF-α and IL-4.
as §1, §2, §3, §4, §5

Fibroblasts [7] = test: BioMAP HDF3CGF system (IL-1β + TNF-α + IFN-γ + EGF + bFGF + PDGFbb), scoring of readout parameters; format: cell-based, human; conditions: for PAI-1 score: desired change decrease; for MMP-1 score: desired change increase; for EGFR score: desired no change or increase
Description: In the “HDF-3CGF” system, dermal fibroblast cells, usually primary human dermal fibroblast cells are cultured alone or in the presence of lung epithelial cells, usually primary human lung epithelial cells, with two or more factors selected from: TNF, IL-1, IFNγ, EGF, bFGF+HSPG (heparan sulfate proteoglycan), and PDGFbb. In some embodiments three or more factors are present, four or more, five or more, or all six factors are present.
Human neonatal dermal fibroblasts (HDFn) or adult lung fibroblasts (HDFp) or fibroblasts from tissues such as liver, heart, or kidney are used. Cells are cultured at 3×10^4 cells/ml in DMEM/F12 (50/50) from Cellgro, supplemented with LSGS kit (from Cascade Biologics); fetal bovine serum, 2% v/v, hydrocortisone 100 nM, human epidermal growth factor 10 ng/ml, basic fibroblast growth factor 3 ng/ml and heparin 10 μg/ml, and penicillin/streptomycin amphotericin B solution (PSA), until confluency. Medium is replaced with DMEM/F12 with only penicillin/streptomycin amphotericin B solution (PSA), then 24 hours later, the following are applied:
After another 24, 48 or 72 hours incubation (37° C., 5% CO2) the cultures are evaluated for the following parameters: ICAM, VCAM, CD40, CD90, IP-10, MCP-1, Collagen I, Mig, m-CSF, TIMP-2, PAI-I, IL-8, Collagen III, HLA-DR, MMP-1, MMP-9, proliferation, TGF-b1, eotaxin-3, decorin, alpha-SMC, MLCK, I-TAC, EGFR, TIMP-1.
Cell culture. […] Human dermal fibroblasts were pooled from 3 donors, cultured according to standard methods, and plated confluent 24 h before stimulation. Cell culture medium for all systems containing fibroblasts and keratinocytes contained low hydrocortisone. […] Concentrations/amounts of agents added to confluent microtiter plates to build each system: cytokines (IL-1β, 1 ng/ml; TNF-α, 5 ng/ml; IFN-γ, 20 ng/ml; IL-4, 5 ng/ml), activators (SAg, 20 ng/ml; histamine, 10 μM; zymosan, 10 μg/ml; or LPS, 2 ng/ml), growth factors (TGF-β, 5 ng/ml; EGF, bFGF, and PDGF-BB, 10 ng/ml), and PBMC (7.5×10^4 cells/well) or macrophages (3.5×10^4 cells/well).

[8] = PMID 17023731, PMID 8421998; cited from earlier work

Structure (SMILES)	MMP-1 score (Fibroblasts [1])	HLA-DR score [2]	uPAR score [2]	Score (Fraction correctly modulated parameters out of 45-58 total) (human primary cells)	HLA-DR score [3]	MMP-1 score [3]	PAI-1 score [3]	TF score [4]	PAI-1 score (Fibroblasts [5])	uPA score [6]	PAI-1 score [6]	EGFR score [6]	PAI-1 score (Fibroblasts [7])	MMP-1 score (Fibroblasts [7])	EGFR score (Fibroblasts [7])	anti-fibrotic activity [8]
Cc1cc(C2CCCCC2)n(O)c(=O)c1.NCCO [Ciclopirox Ethanolamine]	0	0	0	0.31	0	0	0	0	1	0	0	1	1	0	0	–
COc1cc(/C=C/C(=O)N2CCC=CC2=O)cc(OC)c1OC [Piperlongumine]	0	0	0	0.47	0	0	0	1	1	0	0	0	1	0	0	–
CC(=O)S[C@@H]1CC2=CC(=O)CC[C@]2(C)[C@H]2CC[C@@]3(C)[C@@H](CC[C@@]34CCC(=O)O4)[C@H]12 [spironolactone]	–	–	–	high scores	–	–	–	–	–	–	–	–	–	–	–	known anti-fibrotic activity
C=C(NC(=O)C(=C)NC(=O)c1csc(C2=N[C@@H]3c4csc(n4)[C@H]4NC(=O)c5csc(n5)[C@H]([C@](C)(O)[C@@H](C)O)NC(=O)[C@H]5CSC(=N5)/C(=C/C)NC(=O)[C@H]([C@@H](C)O)NC(=O)c5csc(n5)[C@]3(CC2)NC(=O)[C@H](C)NC(=O)C(=C)NC(=O)[C@H](C)NC(=O)[C@H]([C@@H](C)CC)N[C@@H]2C=Cc3c([C@H](C)O)cc(nc3[C@H]2O)C(=O)O[C@@H]4C)n1)C(N)=O [Thiostrepton]	0	0	0	0.42	0	0	0	1	1	0	0	1	1	0	0	–
Cc1[nH]ccc2c1[nH]c1cc(=O)ccc12 [Harmol]	0	0	0	0.29	0	0	1	1	1	0	0	0	1	0	0	–
